From patent US6974831B2, “sPLA2 inhibitors” (Eli Lilly and Company, priority 2000, dated 2005) come the findings set out here.

The first series deals with T1, recombinant human secreted phospholipase A2 (Homo sapiens, UniProt P14555).
T1 sequence (P14555 21-144): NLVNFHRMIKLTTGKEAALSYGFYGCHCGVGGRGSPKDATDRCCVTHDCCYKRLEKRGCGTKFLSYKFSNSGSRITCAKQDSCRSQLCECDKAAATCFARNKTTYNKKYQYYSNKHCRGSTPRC
Put plainly: chromogenic assay of sPLA2 inhibition (diheptanoyl thio-PC / DTNB, 96 well microtiter plates). Type of series: biochemical. The note with it: absorbance at 405 nanometers, 40° C. for 30 minutes, pH 7.5, titrated in triplicate and averaged. The text has this: The following chromogenic assay procedure was used to identify and evaluate inhibitors of recombinant human secreted phospholipase A2. The assay described herein has been adapted for high volume screening using 96 well microtiter plates. A general description of this assay method is found in the article, “Analysis of Human Synovial Fluid Phospholipase A2 on Short Chain Phosphatidylcholine-Mixed Micelles: Development of a Spectrophotometric Assay Suitable for a Microtiterplate Reader”, by Laure J. Reynolds, Lori L. Hughes, and Edward A Dennis, Analytical Biochemistry, 204, pp. 190-197, 1992 (the disclosure of which is incorporated herein by reference):
REACTION BUFFER— • CaCl2.2H2O (1.47 g/L) • KCl (7.455 g/L) • Bovine Serum Albumin (fatty acid free) (1 g/L) • (Sigma A-7030, product of Sigma • Chemical Co., St. Louis Mo., USA) • TRIS HCl (3.94 g/L) • pH 7.5 (adjust with NaOH)
ENZYME BUFFER— • 0.05 NaOAc.3H2O, pH 4.5 • 0.2 NaCl • Adjust pH to 4.5 with acetic acid
DTNB—5,5′-dithiobis-2-nitrobenzoic acid
RACEMIC DIHEPTANOYL THIO—PC • racemic 1,2-bis(heptanoylthio)-1,2-dideoxy-sn-glycero-3-phosphorylcholine • TRITON X-100™ prepare at 6.249 mg/ml in reaction buffer to equal […].
A measured volume of racemic dipheptanoyl thio PC supplied in chloroform at a concentration of 100 mg/ml is taken to dryness and redissolved in 10 millimolar TRITON X-100™ nonionic detergent aqueous solution. Reaction Buffer is added to the solution, then DTNB to give the Reaction Mixture.
The reaction mixture thus obtained contains 1 mM diheptanoly thio-PC substrate, 0.29 mm Triton X-100™ detergent, and 0.12 mm DTMB in a buffered aqueous solution at pH 7.5.
• 1. Add 0.2 ml reaction mixture to all wells; • 2. Add 10 ul test compound (or solvent blank) to appropriate wells, mix 20 seconds; • 3. Add 50 nanograms of sPLA2 (10 microliters) to appropriate wells; • 4. Incubate plate at 40° C. for 30 minutes; • 5. Read absorbance of wells at 405 nanometers with an automatic plate reader.
Tests were done in triplicate. Typically, compounds were tested at a final concentration of 5 ug/ml. […] Lack of color development at 405 nanometers evidenced inhibition. Compounds initially found to be active were re-assayed to confirm their activity and, if sufficiently active, IC50 values were determined. […] In all cases, % inhibition measured at 405 nanometers generated by enzyme reactions containing inhibitors relative to the uninhibited control reactions was determined. Each sample was titrated in triplicate and result values were averaged for plotting and calculation of IC50 values. IC50 values were determined by plotting log concentration versus inhibition values in the range from 10-90% inhibition.
A word on the IC50: it is the concentration that gives 50% inhibition. With `Cc1c(C(=O)C(N)=O)c2c(OCC(=O)O)cc3c(c2n1Cc1ccccc1)CCCC3` [Example 15, 2-[[3-(2-Amino-1,2-dioxoethyl)-1-benzyl-2-methyl-6,7,8,9-tetrahydro-1H-benz[g]indol-4-yl]oxy]acetic acid], the IC50 amounted to 0.01 µM.
With `COC(=O)COc1cc2c(c3c1c(C(=O)C(N)=O)c(C)n3Cc1ccccc1F)CCC2` [Example 8, 2-[[3-(2-Amino-1,2-dioxoethyl)-2-methyl-1-(2-fluorobenzyl)-1,6,7,8-tetrahydrocyclopent[g]indol-4-yl]oxy]acetic acid methyl ester], the IC50 was found to be 0.073 µM.
The same measure, in the same setting: as for `COC(=O)COc1cc2c(c3c1c(C(=O)C(N)=O)c(C)n3Cc1cccc(F)c1)CCC2` [Example 6, 2-[[3-(2-Amino-1,2-dioxoethyl)-2-methyl-1-(3-fluorobenzyl)-1,6,7,8-tetrahydrocyclopent[g]indol-4-yl]oxy]acetic Acid methyl ester], the figure is 0.132 µM; as for `COC(=O)COc1cc2c(c3c1c(C(=O)C(N)=O)c(C)n3Cc1ccc(F)cc1)CCC2` [Example 10, 2-[[3-(2-Amino-1,2-dioxoethyl)-2-methyl-1-(4-fluorobenzyl)-1,6,7,8-tetrahydrocyclopent[g]indol-4-yl]oxy]acetic acid methyl ester], 0.806 µM; as for `Cc1c(C(=O)C(N)=O)c2c(OCC(=O)NS(=O)(=O)c3ccccc3)cc3c(c2n1Cc1ccccc1)CCC3` [Example 5, 2-[4-(2-Benzenesulfonylamino-2-oxoethoxy)-1-benzyl-2-methyl-1,6,7,8-tetrahydro-1-aza-as-indacen-3-yl]-2-oxoacetamide], 0.007 µM.
In the case of `Cc1c(C(=O)C(N)=O)c2c(OCC(=O)O)cc3c(c2n1Cc1ccccc1Br)CCC3` [Example 17, 2-[[3-(2-Amino-1,2-dioxoethyl)-2-methyl-1-(2-bromobenzyl)-1,6,7,8-tetrahydrocyclopent[g]indol-4-yl]oxy]acetic acid], the half-maximal inhibitory concentration (IC50) is 0.01 µM.
Take `Cc1c(C(=O)C(N)=O)c2c(OCC(=O)O)cc3c(c2n1Cc1ccccc1F)CCC3` [Example 9, 2-[[3-(2-Amino-1,2-dioxoethyl)-2-methyl-1-(2-fluorobenzyl)-1,6,7,8-tetrahydrocyclopent[g]indol-4-yl]oxy]acetic acid]: the IC50 was found to be 0.009 µM.
On the same count and under the same terms, as for `Cc1c(C(=O)C(N)=O)c2c(OCC(=O)O)cc3c(c2n1Cc1ccccc1-c1ccc(Br)s1)CCC3` [Example 21, 2-[[3-(2-amino-1,2-dioxoethyl)-2-methyl-1-[2-(5-bromothiophen-2-yl)benzyl]-1,6,7,8-tetrahydrocyclopent[g]indol-4-yl]oxy]acetic acid], the figure is 0.044 µM; as for `Cc1c(C(=O)C(N)=O)c2c(OCC(=O)O)cc3c(c2n1Cc1cccc(F)c1)CCC3` [Example 7, 2-[[3-(2-Amino-1,2-dioxoethyl)-2-methyl-1-(3-fluorobenzyl)-1,6,7,8-tetrahydrocyclopent[g]indol-4-yl]oxy]acetic acid hydrate], 0.01 µM; as for `Cc1c(C(=O)C(N)=O)c2c(OCC(=O)O)cc3c(c2n1Cc1ccc(F)cc1)CCC3` [Example 11, 2-[[3-(2-Amino-1,2-dioxoethyl)-2-methyl-1-(4-fluorobenzyl)-1,6,7,8-tetrahydrocyclopent[g]indol-4-yl]oxy]acetic acid], 0.082 µM.
The same measure, in the same setting: as for `COC(=O)COc1cc2c(c3c1c(C(=O)C(N)=O)c(C)n3Cc1ccccc1)CCCC2` [Example 14, 2-[[3-(2-Amino-1,2-dioxoethyl)-1-benzyl-2-methyl-6,7,8,9-tetrahydro-1H-benz[g]indol-4-yl]oxy]acetic acid methyl ester], the figure is 0.109 µM; as for `CCc1c(C(=O)C(N)=O)c2c(OCC(=O)O)cc3c(c2n1Cc1ccccc1)CCC3` [Example 2, 2-[[3-(2-Amino-1,2-dioxoethyl)-2-ethyl-1-benzyl-1,6,7,8-tetrahydrocyclo-pent[g]indol-4-yl]oxy]acetic acid], 0.013 µM.
On the same count and under the same terms, as for `CCc1c(C(=O)C(N)=O)c2c(OCC(=O)OC)cc3c(c2n1Cc1ccccc1)CCCC3` [Example 12, 2-[[3-(2-Amino-1,2-dioxoethyl)-1-benzyl-2-ethyl-6,7,8,9-tetrahydro-1H-benz[g]indol-4-yl]oxy]acetic acid methyl ester], the figure is 0.1 µM; as for `COC(=O)COc1cc2c(c3c1c(C(=O)C(N)=O)c(C)n3Cc1ccccc1-c1ccc(Br)s1)CCC2` [Example 20, 2-[[3-(2-amino-1,2-dioxoethyl)-1-[2-(5-bromothiophen-2-yl)benzyl]-2-methyl-1,6,7,8-tetrahydrocyclopent[g]indol-4-yl]oxy]acetic acid methyl ester], 0.638 µM.
`CCc1c(C(=O)C(N)=O)c2c(OCC(=O)OC)cc3c(c2n1Cc1ccccc1)CCC3` [Example 1, 2-[[3-(2-Amino-1,2-dioxoethyl)-2-ethyl-1-benzyl-1,6,7,8-tetrahydrocyclo-pent[g]indol-4-yl]oxy]acetic acid methyl ester]: the 50% inhibitory concentration (IC50) was determined as 0.108 µM.
Same read-out and setting: as for `COC(=O)COc1cc2c(c3c1c(C(=O)C(N)=O)c(C)n3Cc1ccccc1Br)CCC2` [Example 16, 2-[[3-(2-Amino-1,2-dioxoethyl)-2-methyl-1-(2-bromobenzyl)-1,6,7,8-tetrahydrocyclopent[g]indol-4-yl]oxy]acetic acid methyl ester], the figure is 0.453 µM; as for `COC(=O)COc1cc2c(c3c1c(C(=O)C(N)=O)c(C)n3Cc1ccccc1-c1ccccc1)CCC2` [Example 18, 2-[[3-(2-Amino-1,2-dioxoethyl)-2-methyl-1-(2-phenylbenzyl)-1,6,7,8-tetrahydrocyclopent[g]indol-4-yl]oxy]acetic acid methyl ester], 0.19 µM.
Consider `Cc1c(C(=O)C(N)=O)c2c(OCC(=O)O)cc3c(c2n1Cc1ccccc1-c1ccccc1)CCC3` [Example 19, 2-[[3-(2-Amino-1,2-dioxoethyl)-2-methyl-1-(2-phenylbenzyl)-1,6,7,8-tetrahydrocyclopent[g]indol-4-yl]oxy]acetic acid], for which the IC50 turned out to be 0.035 µM.
Still for that read-out and setting: as for `CCc1c(C(=O)C(N)=O)c2c(OCC(=O)O)cc3c(c2n1Cc1ccccc1)CCCC3` [Example 13, 2-[[3-(2-Amino-1,2-dioxoethyl)-1-benzyl-2-ethyl-6,7,8,9-tetrahydro-1H-benz[g]indol-4-yl]oxy]acetic acid], the figure is 0.011 µM; as for `COC(=O)COc1cc2c(c3c1c(C(=O)C(N)=O)c(C)n3Cc1ccccc1)CCC2` [Example 3, 2-[[3-(2-Amino-1,2-dioxoethyl)-2-methyl-1-benzyl-1,6,7,8-tetrahydrocyclo-pent[g]indol-4-yl]oxy]acetic acid methyl ester], 0.106 µM; as for `Cc1c(C(=O)C(N)=O)c2c(OCC(=O)O)cc3c(c2n1Cc1ccccc1)CCC3` [Example 4, 2-[[3-(2-Amino-1,2-dioxoethyl)-2-methyl-1-benzyl-1,6,7,8-tetrahydrocyclopent[g]indol-4-yl]oxy]acetic acid], 0.01 µM.

System in a further series: not given
Test: not given
Settings: not given
By melting point is commonly meant the temperature, or range, at which the solid turns liquid. As for `COC(=O)COc1cc2c(c3c1c(C(=O)C(N)=O)c(C)n3Cc1ccc(F)cc1)CCC2` [Example 10, 2-[[3-(2-Amino-1,2-dioxoethyl)-2-methyl-1-(4-fluorobenzyl)-1,6,7,8-tetrahydrocyclopent[g]indol-4-yl]oxy]acetic acid methyl ester], the melting point was 222 to 224 °C.
